Test results taken from patent publication US11958865B1, “Leucine-rich repeat kinase 2 (LRRK2) inhibitors” (H. Lundbeck A/S, priority 2022, dated 2024).
Like-named read-outs stand apart in the source and are kept apart here.

Columns and labels:
LRRK2 WT = LRRK2 WT (Homo sapiens (Human), UniProt Q5S007); assay: LRRK2 wild-type ADP-Glo kinase assay; type: biochemical; details: read-out: LRRK2 WT ADPGlo IC50
[1] = Rat brain disposition after oral gavage; type: in vivo, male Sprague-Dawley rats; details: male, Sprague-Dawley, 1 h, mean ± stdev; for Kp at 1 h / Kp uu at 1 h: n=3
Summary of the method: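 Male Sprague-Dawley rats (n=3) dosed orally at 10 or 5 mg/kg in 0.5% HPMC suspension; plasma and brain taken at 0.5 or 1 h. LC-MS/MS quantitation; Kp is total brain:plasma ratio, and Kp,uu was derived using rat fu in plasma and brain.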

[2] = Fraction unbound in rat plasma and brain homogenate by equilibrium dialysis; type: in vitro ADME, male Sprague-Dawley rat; details: 1 μM, equilibrium dialysis 5 h at 37° C.; for fubrain (% free): rat brain homogenate; for fuplasma (% free): rat plasma
Summary of the method: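 Male Sprague-Dawley rat plasma or brain homogenate (diluted 1:4 in buffer) dialysed against 100 mM sodium phosphate pH 7.4 across a 12-14 kDa membrane, 1 μM compound (≤0.5% DMSO), 5 h at 37° C with shaking. LC/MS-MS of both chambers; fu from buffer/donor ratio, corrected for dilution factor D=4 (brain) or 1 (plasma).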

[3] = Hepatocyte intrinsic clearance assay; type: in vitro ADME, Human; details: pooled donor, cryopreserved hepatocytes, pH 7.4; human hepatocytes 1×10^6/mL; 0.05 μM; 2 h at 37° C.
Summary of the method: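 Compound (0.05 μM final, 0.05% organic) was incubated with pooled-donor cryopreserved hepatocytes (1×10^6/mL) in supplemented Leibovitz L-15, pH 7.4, at 37° C with shaking for 2 h. Samples were taken from 1 to 120 min, quenched in acetonitrile and analyzed by LC-MS/MS.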

[4] = Hepatic microsomal intrinsic clearance assay; type: in vitro ADME; details: for CLint scaled at 1 μM: pooled liver microsomes, pH 7.4, liver microsomes 0.5 mg/mL, NADPH, 1 hour at 37° C., LLOQ 0.36 L/h/kg
Summary of the method: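 Compounds at 1 μM final were incubated with pooled liver microsomes (0.5 mg/mL) in phosphate buffer pH 7.4 at 37 °C for up to 60 min. Samples taken at 0, 5, 10, 20, 30 and 60 min were quenched with acetonitrile and analysed by LC-MS/MS.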

[5] = 0.5 nM kinase, 1.0 mM ATP, IC50=Ki,app+[E]/2, n≥2 tests
[6] = brain, oral 5 mg/kg, n=3, read-out: Total brain concentration
[7] = plasma, oral 5 mg/kg, n=3, read-out: Total plasma concentration

Sequence of LRRK2 WT (Q5S007 970-2527): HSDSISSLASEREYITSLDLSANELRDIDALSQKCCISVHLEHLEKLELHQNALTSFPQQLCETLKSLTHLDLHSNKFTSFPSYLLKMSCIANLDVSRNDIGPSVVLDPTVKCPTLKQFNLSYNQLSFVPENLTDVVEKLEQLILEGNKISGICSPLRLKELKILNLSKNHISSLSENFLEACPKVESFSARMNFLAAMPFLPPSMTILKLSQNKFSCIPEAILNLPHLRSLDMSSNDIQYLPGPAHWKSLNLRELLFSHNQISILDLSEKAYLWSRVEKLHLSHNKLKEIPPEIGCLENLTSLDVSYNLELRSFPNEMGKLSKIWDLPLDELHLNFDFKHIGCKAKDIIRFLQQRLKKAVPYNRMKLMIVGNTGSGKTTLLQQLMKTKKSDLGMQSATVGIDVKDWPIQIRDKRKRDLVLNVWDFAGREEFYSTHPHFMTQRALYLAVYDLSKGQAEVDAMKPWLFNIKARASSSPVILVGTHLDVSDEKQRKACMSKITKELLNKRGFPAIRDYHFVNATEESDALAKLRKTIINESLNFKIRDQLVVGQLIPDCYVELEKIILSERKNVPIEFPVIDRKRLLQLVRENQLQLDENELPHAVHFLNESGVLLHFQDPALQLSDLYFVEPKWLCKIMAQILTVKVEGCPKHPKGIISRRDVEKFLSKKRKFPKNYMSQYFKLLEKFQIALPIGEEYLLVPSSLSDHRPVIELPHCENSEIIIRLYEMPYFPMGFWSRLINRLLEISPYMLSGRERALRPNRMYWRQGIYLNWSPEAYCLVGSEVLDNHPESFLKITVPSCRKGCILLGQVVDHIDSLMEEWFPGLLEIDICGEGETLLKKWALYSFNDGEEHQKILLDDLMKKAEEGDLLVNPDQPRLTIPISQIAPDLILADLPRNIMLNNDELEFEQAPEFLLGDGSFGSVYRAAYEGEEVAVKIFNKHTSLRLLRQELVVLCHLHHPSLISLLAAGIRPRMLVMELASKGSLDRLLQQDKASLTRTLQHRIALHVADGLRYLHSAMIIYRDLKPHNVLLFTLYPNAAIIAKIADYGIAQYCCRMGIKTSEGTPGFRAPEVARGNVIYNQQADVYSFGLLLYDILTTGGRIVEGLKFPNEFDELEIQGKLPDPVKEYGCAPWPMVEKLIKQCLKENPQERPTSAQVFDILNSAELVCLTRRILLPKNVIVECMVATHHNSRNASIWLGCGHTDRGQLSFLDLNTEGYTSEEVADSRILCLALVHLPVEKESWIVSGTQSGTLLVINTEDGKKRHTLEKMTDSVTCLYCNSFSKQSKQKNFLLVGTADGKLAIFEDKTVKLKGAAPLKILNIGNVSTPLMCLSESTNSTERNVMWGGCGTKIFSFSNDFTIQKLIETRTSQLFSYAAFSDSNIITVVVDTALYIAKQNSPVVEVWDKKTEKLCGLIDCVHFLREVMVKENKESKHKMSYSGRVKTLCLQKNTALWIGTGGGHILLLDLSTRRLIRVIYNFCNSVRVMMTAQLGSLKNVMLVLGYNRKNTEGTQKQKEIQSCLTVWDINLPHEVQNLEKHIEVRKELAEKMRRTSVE

IC50 (LRRK2 WT) [nM] | Kp at 1 h ([1]; brain, oral 10 mg/kg) | Kp uu at 1 h ([1]; brain, oral 10 mg/kg) | concentration at 1 h ([1]; brain, oral 10 mg/kg, n=3, read-out: Total brain concentration) [ng/g] | concentration at 1 h ([1]; plasma, oral 10 mg/kg, n=3, read-out: Total plasma concentration) [ng/mL] | Structure (SMILES) | IC50 (LRRK2 WT; [5]) [nM] | Kp at 1 h ([1]; brain, oral 5 mg/kg) | Kp uu at 1 h ([1]; brain, oral 5 mg/kg) | concentration at 1 h [1, 6] [ng/g] | concentration at 1 h [1, 7] [ng/mL] | fubrain (% free) [2] [% free] | fuplasma (% free) [2] [% free] | CLint scaled at 0.05 μM [3] [mL/min/kg] | CLint scaled at 1 μM [4] [mL/min/kg] | Rate of metabolism classification (liver microsomal CLint) ([4]; based on liver microsomal CLint values of Table 6)
 |  |  |  |  | COc1nccc(C)c1-n1nc2c(c1C)Nc1ncc3c(Cl)nn(c3n1)CCCO2 [Example 7, 8-Chloro-2-(2-methoxy-4-methylpyridin-3-yl)-3-methyl-2,4,12,13-tetrahydro-11H-5,7-(azenometheno)dipyrazolo[3,4-b:5′,1′-g][1]oxa[4,6,8]triazacycloundecine] | 0.78 | 1.9 ± 0.3 | 0.68 ± 0.12 | 10 ± 2 | 6 ± 2 | 7.5 | 21.0 | 7.83 | 16.2 | 
 |  |  |  |  | COc1ncc(C)cc1-n1nc2c(c1C)Nc1ncc3c(Cl)nn(c3n1)CCCO2 [Example 12, 8-Chloro-2-(2-methoxy-5-methylpyridin-3-yl)-3-methyl-2,4,12,13-tetrahydro-11H-5,7-(azenometheno)dipyrazolo[3,4-b:5′,1′-g][1]oxa[4,6,8]triazacycloundecine] | 0.63 | 1.9 ± 0.3 | 0.85 ± 0.15 | 146 ± 56 | 76 ± 23 | 3.0 | 6.7 | 8 | 16.8 | 
0.6 |  |  |  |  | COc1nc(C)ncc1-n1nc2c(c1C)Nc1ncc3c(Cl)nn(c3n1)CCCO2 [Example 22, 8-Chloro-2-(4-methoxy-2-methylpyrimidin-5-yl)-3-methyl-2,4,12,13-tetrahydro-11H-5,7-(azenometheno)dipyrazolo[3,4-b:5′,1′-g][1]oxa[4,6,8]triazacycloundecine] |  | 2.5 ± 0.4 | 1.02 ± 0.17 | 216 ± 42 | 86 ± 8 | 6.8 | 16.8 | < 4 | < 6 | 
 |  |  |  |  | Cc1c2c(nn1-c1cccnc1C(C)(F)F)OCCCn1nc(Cl)c3cnc(nc31)N2 [Example 14, 8-Chloro-2-(2-(1,1-difluoroethyl)pyridin-3-yl)-3-methyl-2,4,12,13-tetrahydro-11H-5,7-(azenometheno)dipyrazolo[3,4-b:5′,1′-g][1]oxa[4,6,8]triazacycloundecine] | 1.5 | 1.2 ± 0.1 | 0.49 ± 0.04 | 347 ± 53 | 283 ± 57 | 5.8 | 14.6 | 7.83 | 17.2 | 
 |  |  |  |  | Cc1nc(C)c(-n2nc3c(c2C)Nc2ncc4c(Cl)nn(c4n2)CCCO3)cc1F [Example 15, 8-Chloro-2-(5-fluoro-2,6-dimethylpyridin-3-yl)-3-methyl-2,4,12,13-tetrahydro-11H-5,7-(azenometheno)dipyrazolo[3,4-b:5′,1′-g][1]oxa[4,6,8]triazacycloundecine] | 0.66 | 1.8 ± 0.2 | 0.81 ± 0.07 | 254 ± 32 | 143 ± 8 | 5.0 | 11.0 | 12 | 12 | 
 |  |  |  |  | COc1nc(C)ccc1-n1nc2c(c1C)Nc1ncc3c(Cl)nn(c3n1)CCCO2 [Example 13, 8-Chloro-2-(2-methoxy-6-methylpyridin-3-yl)-3-methyl-2,4,12,13-tetrahydro-11H-5,7-(azenometheno)dipyrazolo[3,4-b:5′,1′-g][1]oxa[4,6,8]triazacycloundecine] | 0.33 | 2.5 ± 0.1 | 0.74 ± 0.01 | 496 ± 128 | 199 ± 52 | 1.9 | 7.4 | 31.3 | 30.3 | moderate to high rate of metabolism
 | 2.6 ± 0.2 | 0.83 ± 0.07 | 620 ± 280 | 245 ± 121 | COc1ncccc1-n1nc2c(c1C)Nc1ncc3c(Cl)nn(c3n1)CCCO2 [Example 1, 8-Chloro-2-(2-methoxypyridin-3-yl)-3-methyl-2,4,12,13-tetrahydro-11H-5,7-(azenometheno)dipyrazolo[3,4-b:5′,1′-g][1]oxa[4,6,8]triazacycloundecine] | 0.46 |  |  |  |  | 4.7 | 14.7 | 10.7 | 9.67 | 
